{
  "source": "ChEMBL document CHEMBL2331167",
  "about": "“Inhibitory effect of novel somatostatin peptide analogues on human cancer cell growth based on the selective inhibition of DNA polymerase β” (Bioorg Med Chem, 2013)",
  "biological_target": "T1, DNA polymerase subunit gamma-1 (Homo sapiens, UniProt P54098)",
  "T1 sequence (P54098 whole entry)": "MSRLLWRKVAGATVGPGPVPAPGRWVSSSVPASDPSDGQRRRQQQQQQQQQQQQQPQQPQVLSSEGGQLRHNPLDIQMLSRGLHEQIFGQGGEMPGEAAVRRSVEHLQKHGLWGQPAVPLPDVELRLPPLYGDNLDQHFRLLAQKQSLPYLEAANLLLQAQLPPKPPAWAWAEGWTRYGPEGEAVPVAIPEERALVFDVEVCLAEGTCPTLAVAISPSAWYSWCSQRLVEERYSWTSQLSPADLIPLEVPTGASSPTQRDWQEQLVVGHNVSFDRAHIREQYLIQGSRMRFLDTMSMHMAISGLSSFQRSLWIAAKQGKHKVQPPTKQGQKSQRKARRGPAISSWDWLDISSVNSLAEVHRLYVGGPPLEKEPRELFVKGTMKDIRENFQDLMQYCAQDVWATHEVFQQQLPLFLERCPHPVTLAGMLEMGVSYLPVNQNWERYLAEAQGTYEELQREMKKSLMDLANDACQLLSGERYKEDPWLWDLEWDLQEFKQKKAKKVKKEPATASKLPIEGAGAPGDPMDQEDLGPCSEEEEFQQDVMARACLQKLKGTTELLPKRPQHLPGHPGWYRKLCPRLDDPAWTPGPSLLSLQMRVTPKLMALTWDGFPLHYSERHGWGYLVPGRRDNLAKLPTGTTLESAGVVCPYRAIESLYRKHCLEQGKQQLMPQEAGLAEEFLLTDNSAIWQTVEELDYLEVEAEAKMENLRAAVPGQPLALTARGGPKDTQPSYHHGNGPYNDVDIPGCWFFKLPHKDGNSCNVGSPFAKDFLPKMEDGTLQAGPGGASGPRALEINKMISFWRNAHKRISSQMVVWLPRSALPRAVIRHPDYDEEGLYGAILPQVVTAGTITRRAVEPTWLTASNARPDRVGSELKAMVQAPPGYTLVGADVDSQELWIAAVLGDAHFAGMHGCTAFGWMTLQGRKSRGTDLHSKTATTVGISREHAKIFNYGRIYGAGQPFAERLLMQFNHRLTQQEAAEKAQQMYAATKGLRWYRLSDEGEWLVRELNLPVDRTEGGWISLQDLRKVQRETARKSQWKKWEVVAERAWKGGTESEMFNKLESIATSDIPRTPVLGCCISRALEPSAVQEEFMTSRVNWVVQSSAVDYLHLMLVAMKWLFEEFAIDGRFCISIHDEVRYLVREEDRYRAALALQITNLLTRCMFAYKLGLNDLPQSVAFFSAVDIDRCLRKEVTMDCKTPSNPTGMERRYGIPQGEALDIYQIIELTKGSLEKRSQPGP",
  "test": "Inhibition of human DNA polymerase gamma using poly(dA)/oligo(dT)18 (A/T, 2/1)/dTTP DNA template-primer substrate measured at 37 degC for 60 mins",
  "data": [
    {"compound": "CC[C@H](C)[C@H](NC(=O)[C@H](Cc1ccc(O)cc1)NC(=O)OC(C)(C)C)C(=O)Nc1cccc2ccccc12", "values": [
      {"measurement": "IC50", "value": "> 200", "unit": "µM"}
    ]}
  ]
}
